“And” between values parts separate entries of the source, which are not always exact repeats. Identical values can stand only once.
Target: T1, neuronal-type nicotinic receptors (Bos taurus, UniProt Q07263+Q8SPU6)
T1 construct: monolayer cultures of bovine adrenal chromaffin cells; endogenous in cells; host or cells: bovine adrenal chromaffin cells (primary monolayer cultures)
Format: cell-based, Bovine

T1 sequence (Q07263 22-495): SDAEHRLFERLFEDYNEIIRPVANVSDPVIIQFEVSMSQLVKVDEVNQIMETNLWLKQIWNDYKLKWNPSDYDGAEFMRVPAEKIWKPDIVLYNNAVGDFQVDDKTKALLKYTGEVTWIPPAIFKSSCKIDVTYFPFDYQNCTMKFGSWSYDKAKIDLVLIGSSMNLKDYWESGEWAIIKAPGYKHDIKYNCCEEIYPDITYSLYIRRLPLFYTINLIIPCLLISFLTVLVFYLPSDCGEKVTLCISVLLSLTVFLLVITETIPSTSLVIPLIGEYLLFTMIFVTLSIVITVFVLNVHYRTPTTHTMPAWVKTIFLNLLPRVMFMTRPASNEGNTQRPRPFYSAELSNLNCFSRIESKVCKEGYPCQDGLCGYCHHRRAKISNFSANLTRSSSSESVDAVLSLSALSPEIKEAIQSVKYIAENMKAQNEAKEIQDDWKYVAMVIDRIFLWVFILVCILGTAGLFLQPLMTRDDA
T1 sequence (Q8SPU6 20-496): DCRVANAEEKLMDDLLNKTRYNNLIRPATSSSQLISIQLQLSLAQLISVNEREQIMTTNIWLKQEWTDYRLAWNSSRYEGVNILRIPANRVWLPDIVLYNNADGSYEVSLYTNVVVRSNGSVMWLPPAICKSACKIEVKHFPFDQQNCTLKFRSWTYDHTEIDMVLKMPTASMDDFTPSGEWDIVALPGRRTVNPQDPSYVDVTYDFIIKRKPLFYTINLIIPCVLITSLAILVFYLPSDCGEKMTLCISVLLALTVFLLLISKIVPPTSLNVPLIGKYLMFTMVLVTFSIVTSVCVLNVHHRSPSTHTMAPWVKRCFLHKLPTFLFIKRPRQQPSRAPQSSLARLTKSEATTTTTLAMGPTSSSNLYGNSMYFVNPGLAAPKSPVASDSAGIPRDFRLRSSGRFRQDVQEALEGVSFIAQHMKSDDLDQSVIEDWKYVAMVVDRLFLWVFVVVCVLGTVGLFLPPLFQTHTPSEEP

SMILES: CN1CCCC1c1cccnc1 (centres unmarked) [NICOTINE, nicotine, reference compound]
- Adrenaline Release, 1st-4th (individual wells): 4.31% and 4.52% (2×) and 4.48%
- Adrenaline Release, mean: 4.46%
- Noradrenaline Release, 1st-4th (individual wells): 6.62% and 6.89% (2×) and 6.99%
- Noradrenaline Release, mean: 6.85%
- noradrenaline released, basal release (0.72%) subtracted: 6.13%

Reference: patent US8362204B2 (priority 2006, dated 2013)
